Results: US20090088461A1, “Methods of Treating or Preventing Cardiac Disease Associated With a High Fat Diet” (Synvista Therapeutics, Inc., priority 2007, published 2009)
Where two headings read alike, the source gives them in different places.

Key:
[1] = test system: IgG crosslinked to circulating red blood cells; assay: RBC-IgG assay; assay type: in vivo; settings: streptozotocin-induced diabetic rats, dosed orally 10 mg/kg body weight, 19 days
Text: 2. […] 3. […] 4. […] 5. […] 6. […] 7. […] 8.
10. […] 11. […] 12. […] 13. […] 14. […] 15. […] 16. […] 17.

[2] = target: T1, AGE-BSA previously crosslinked to the collagen (Bos taurus, UniProt P02769); assay: Cross-Link Breaking Assay (sandwich enzyme immunoassay); assay type: biochemical; settings: for Breaking Anti-AGE: anti-AGE antibody; for Breaking Anti-BSA: anti-BSA antibody
T1 construct: Bovine Serum Albumin (Type V), (BSA) Calbiochem; purchased Calbiochem (BSA Type V); Collaborative Biomedical Products (Biocoat collagen plates)
T1 sequence (P02769 25-607): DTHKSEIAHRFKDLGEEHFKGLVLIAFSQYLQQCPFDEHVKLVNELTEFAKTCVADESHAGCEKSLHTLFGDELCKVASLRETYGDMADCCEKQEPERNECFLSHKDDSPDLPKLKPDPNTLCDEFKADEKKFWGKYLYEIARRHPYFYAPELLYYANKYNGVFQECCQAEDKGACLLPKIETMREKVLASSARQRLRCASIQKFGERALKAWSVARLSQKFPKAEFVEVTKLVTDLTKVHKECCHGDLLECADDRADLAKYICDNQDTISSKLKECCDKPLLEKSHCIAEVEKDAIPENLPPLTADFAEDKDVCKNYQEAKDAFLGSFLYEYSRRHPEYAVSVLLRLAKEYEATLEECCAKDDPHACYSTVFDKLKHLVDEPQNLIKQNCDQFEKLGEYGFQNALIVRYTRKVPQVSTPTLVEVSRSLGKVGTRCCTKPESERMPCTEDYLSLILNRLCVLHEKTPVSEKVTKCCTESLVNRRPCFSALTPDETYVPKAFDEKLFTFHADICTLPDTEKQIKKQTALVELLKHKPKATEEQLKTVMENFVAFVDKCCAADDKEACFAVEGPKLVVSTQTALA
T1 sequence (P02454 152-1207 partner limits assumed): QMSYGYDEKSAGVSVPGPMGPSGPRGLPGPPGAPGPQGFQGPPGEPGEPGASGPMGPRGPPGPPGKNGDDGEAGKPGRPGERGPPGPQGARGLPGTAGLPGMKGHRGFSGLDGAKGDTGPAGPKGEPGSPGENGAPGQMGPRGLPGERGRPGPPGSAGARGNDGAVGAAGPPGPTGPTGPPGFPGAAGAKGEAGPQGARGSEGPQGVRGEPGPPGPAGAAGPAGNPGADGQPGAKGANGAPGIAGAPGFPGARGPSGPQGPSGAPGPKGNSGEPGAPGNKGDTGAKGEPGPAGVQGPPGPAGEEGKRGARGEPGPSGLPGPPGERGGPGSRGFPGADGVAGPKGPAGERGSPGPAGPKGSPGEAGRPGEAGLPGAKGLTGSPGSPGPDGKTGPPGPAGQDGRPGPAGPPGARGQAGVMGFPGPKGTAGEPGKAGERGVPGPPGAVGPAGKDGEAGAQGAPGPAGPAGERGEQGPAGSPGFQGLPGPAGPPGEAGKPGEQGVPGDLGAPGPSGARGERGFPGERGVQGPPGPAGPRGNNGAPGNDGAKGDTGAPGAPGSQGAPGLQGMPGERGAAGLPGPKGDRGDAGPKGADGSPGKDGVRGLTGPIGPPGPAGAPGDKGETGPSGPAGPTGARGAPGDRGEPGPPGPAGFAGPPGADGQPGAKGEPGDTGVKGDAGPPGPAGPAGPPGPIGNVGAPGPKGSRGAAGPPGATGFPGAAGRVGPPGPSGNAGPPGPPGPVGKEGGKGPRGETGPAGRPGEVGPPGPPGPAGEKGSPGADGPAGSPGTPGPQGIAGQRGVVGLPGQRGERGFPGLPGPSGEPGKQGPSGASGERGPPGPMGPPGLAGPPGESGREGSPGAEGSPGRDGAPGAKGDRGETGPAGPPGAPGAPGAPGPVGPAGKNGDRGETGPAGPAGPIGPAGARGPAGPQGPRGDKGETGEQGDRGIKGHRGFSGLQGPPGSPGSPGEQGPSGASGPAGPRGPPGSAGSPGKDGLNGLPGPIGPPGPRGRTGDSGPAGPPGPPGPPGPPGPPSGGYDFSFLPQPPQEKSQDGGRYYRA
T1 sequence (P02466 86-1125 partner limits assumed): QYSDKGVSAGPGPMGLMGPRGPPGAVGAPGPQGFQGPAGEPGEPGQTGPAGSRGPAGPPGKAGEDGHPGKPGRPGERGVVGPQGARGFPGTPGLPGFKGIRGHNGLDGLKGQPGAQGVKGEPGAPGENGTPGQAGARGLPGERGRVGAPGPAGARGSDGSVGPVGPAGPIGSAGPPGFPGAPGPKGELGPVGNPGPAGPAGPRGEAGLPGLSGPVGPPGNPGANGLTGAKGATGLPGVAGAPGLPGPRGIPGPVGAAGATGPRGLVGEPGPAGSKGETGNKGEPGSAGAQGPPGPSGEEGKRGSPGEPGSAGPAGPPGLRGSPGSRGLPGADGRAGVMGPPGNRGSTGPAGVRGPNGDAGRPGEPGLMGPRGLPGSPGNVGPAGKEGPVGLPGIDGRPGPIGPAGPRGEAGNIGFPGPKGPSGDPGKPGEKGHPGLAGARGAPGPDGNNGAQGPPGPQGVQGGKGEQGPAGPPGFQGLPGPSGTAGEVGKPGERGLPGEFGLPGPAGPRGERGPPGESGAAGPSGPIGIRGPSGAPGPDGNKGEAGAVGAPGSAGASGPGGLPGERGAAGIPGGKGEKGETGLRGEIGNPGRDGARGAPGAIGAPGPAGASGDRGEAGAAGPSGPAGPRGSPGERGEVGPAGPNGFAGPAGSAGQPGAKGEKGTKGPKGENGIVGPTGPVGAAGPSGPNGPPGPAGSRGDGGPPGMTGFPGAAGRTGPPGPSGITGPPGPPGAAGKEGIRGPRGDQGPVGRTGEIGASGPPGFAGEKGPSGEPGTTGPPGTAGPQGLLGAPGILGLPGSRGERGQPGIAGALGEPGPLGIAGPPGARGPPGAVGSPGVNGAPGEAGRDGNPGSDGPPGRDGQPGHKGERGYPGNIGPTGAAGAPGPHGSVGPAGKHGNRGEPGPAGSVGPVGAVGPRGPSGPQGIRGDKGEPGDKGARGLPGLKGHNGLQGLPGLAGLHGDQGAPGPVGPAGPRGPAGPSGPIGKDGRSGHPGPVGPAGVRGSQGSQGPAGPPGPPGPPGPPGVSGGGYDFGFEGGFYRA
Description: The present invention also involves a novel sandwich enzyme immunoassay used to ascertain the ability of test compounds to “break” or reverse already formed advanced glycosylation endproducts by detecting the breaking of AGE (Advanced glycosylation endproduct) moieties from AGE-crosslinked protein. This assay comprises:
a) incubation of AGE-modified bovine serum albumin (AGE BSA) on collagen-coated wells of microtiter plates for a period of 2-6 hours' at a temperature of 37° C.
b) washing of the wells with PBS-Tween;
c) application of the test compounds to the washed wells of step b;
d) incubation of the test compounds applied to the washed wells for an additional 12-24 hours at a temperature of about 37° C.; and
e) detection of the AGE-breaking using an antibody raised against AGE-ribonuclease or cross-link breaking with an antibody against BSA.
In order to ascertain the ability of the compounds of the instant invention to “break” or reverse already formed advanced glycosylation endproducts, a novel sandwich enzyme immunoassay was developed which detects breaking of AGE (Advanced glycosylation endproduct) moieties from AGE-crosslinked protein. The assay utilizes collagen-coated 96 well microtiter plates that are obtained commercially. […] Following an incubation period of 16 hours (37° C.) cross-link-breaking is detected using an antibody raised against AGE-ribonuclease or with an antibody against BSA. […] Details of the assay are as follows:
1. AGE-BSA stock solutions were prepared as follows. Sodium phosphate buffer (0.4 M) was prepared by dissolving 6 grams of monobasic sodium phosphate in 100 ml of distilled water, 7 grams of dibasic sodium phosphate (0.4 M) in 100 ml of distilled water and adjusting the pH of the dibasic solution to 7.4 with the monobasic solution. Sodium azide (0.02 grams) was added per 100 ml volume to inhibit bacterial growth. The BSA solution was prepared as follows: 400 mg of Type V BSA (bovine serum albumin) was added for each ml of sodium phosphate buffer (above). A 400 mM glucose solution was prepared by dissolving 7.2 grams of dextrose in 100 ml of sodium phosphate buffer (above). The BSA and glucose solutions were mixed 1:1 and incubated at 37° C. for 12 weeks. The pH of the incubation mixture was monitored weekly and adjusted to pH 7.4 if necessary. After 12 weeks, the AGE-BSA solution was dialyzed against PBS for 48 hours with four buffer changes, each at a 1:500 ratio of solution to dialysis buffer. Protein concentration was determined by the micro-Lowry method. The AGE-BSA stock solution was aliquoted and stored at −20° C.
2. Working solutions for crosslinking and breaking studies were prepared as follows. Test compounds were dissolved in PBS and the pH was adjusted to pH 7.4 if necessary. AGE-BSA stock solution was diluted in PBS to measure maximum crosslinking and in the inhibitor solution for testing inhibitory activity of compounds. The concentration of AGE-BSA necessary to achieve the optimum sensitivity was determined by initial titration of each lot of AGE-BSA.
3. Wash buffer (“PBS-Tween”) was, prepared as follows. PBS was prepared by dissolving the following salts in one liter of distilled water: NaCl, 8 grams; KCl, 0.2 gram, KH2PO4. […] Tween-20 was added to a final concentration of 0.05% (vol/vol).
4. Substrates for detection of secondary antibody binding were prepared by diluting the HRP substrate buffer 1:10 in distilled water and mixing with ABTS chromogen 1:50 just prior to use.
1. Biocoat plates were blocked with 300 μl of “Superbloc”. Plates were blocked for one hour at room temperature and were washed with PBS-Tween three times with the Dynatech platewasher before addition of test reagents.
2. Each experiment was set up in the following manner. The first three wells of the Biocoat plate were used for the reagent blank. Fifty microliters of solutions AGE-BSA were added to test wells in triplicate and only PBS in blank wells.

[3] = Reaction with 1-phenyl-1,2-propanedione
[4] = target: AGE-crosslinks that form when AGE-modified BSA (AGE-BSA) is allowed to react with unmodified, native collagen (Bos taurus, UniProt P02769); assay: Release of BSA from pre-formed AGE-BSA/collagen complexes; assay type: biochemical
Chain of AGE-crosslinks that form when AGE-modified BSA (AGE-BSA) is allowed to react with unmodified, native collagen (P02769 25-607): as the sequence (P02769 25-607) above
Text: Once early, addition products form on proteins, further reactions can ensue to effect a covalent, protein-protein crosslinking reaction. In this regard, a compound of the formula I, N-phenacylthiazolium bromide, was allowed to react with the AGE-crosslinks that form when AGE-modified BSA (AGE-BSA) is allowed to react with unmodified, native collagen. […] Again, this confirmed that a significant portion of the AGE-crosslinks that form under experimental conditions consist of an α-diketone or related structure that is susceptible to cleavage by the advantageous bidentate-type molecules of the compounds of formula I under physiological conditions.

[5] = target: cross-linking of glycated bovine serum albumin (AGE-BSA) to the rat tail tendon collagen-coated 96-well plate (Bos taurus, UniProt P02769); assay: Cross-Linking Inhibition Assay; settings: for inhibition at 10000 µM: read-out: Relative Cross-link Inhibition (at 10 mM)
Chain of cross-linking of glycated bovine serum albumin (AGE-BSA) to the rat tail tendon collagen-coated 96-well plate (P02769 25-607): as above
Description: The following method was used to evaluate the ability of the compounds of the present invention to inhibit the cross-linking of glycated bovine serum albumin (AGE-BSA) to the rat tail tendon collagen-coated 96-well plate.
The blocking solution was removed from the wells by, washing the plate twice with PBS-'Tween 20 solution (0.05% Tween 20) using a NUNq-multiprobe or Dynatech ELISA-plate washer. Cross-linking of AGE-BSA (1 to 10 mg per well depending on the batch of AGE-BSA) to rat tail tendon collagen coated plate was performed with and without the testing ‘compound dissolved in PBS buffer at pH 7.4 at the desired concentrations by the, addition of 50 μl each of the AGE-BSA diluted in PBS or in the solution of test compound at 37° C. for 4 hours.
Unbrowned BSA in PBS buffer with or without testing compound were added to the separate wells as the blanks. The un-cross-linked AGE-BSA was then removed by washing the wells three times with PBS-Tween buffer. The amount of AGE-BSA cross-linked to the tail tendon collagen-coated plate was then quantitated using a polyclonal antibody raised against AGE-RNase. After a one-hour incubation period, AGE antibody was removed by washing 4 times with PBS-Tween.
The bound AGE antibody was then detected with the addition of horseradish peroxidase-conjugated secondary antibody—goat anti-rabbit immunoglobulin and incubation for 30 minutes. […] The reaction was allowed for an additional 15 minutes and the absorbance was read at 410 nm in a Dynatech plate reader.

[6] = detection with anti-AGE antibody, read-out: IC50 (mM) Anti-AGE

| Compound | IC50 [5] | inhibition at 10000 µM [5] | Breaking Anti-AGE ([2]; at 30 mM) | Breaking Anti-BSA ([2]; at 30 mM) | also measured |
| --- | --- | --- | --- | --- | --- |
| C=Cc1sc[n+](CC(=O)c2ccccc2)c1C.[Br-] [3-(2-phenyl-2-oxoethyl)-4-methyl-5-vinyl-thiazolium bromide] |  |  |  |  | Percent Inhibition (percent breaking of RBC-IgG) [1]: 58 ± 21 ® 19 days %; Breaking Anti-AGE ([2]; at 1 mM): 62%; Breaking Anti-BSA ([2]; at 1 mM): 82%; IC50 ([2]; detection with anti-BSA antibody, read-out: IC50 (mM) Anti-BSA): 0.1 mM |
| O=C(C[n+]1ccsc1)c1ccccc1.[Br-] [3-(2-phenyl-2-oxoethyl)thiazolium bromide] | 11.1 mM | 34% |  |  | reaction with 1-phenyl-1,2-propanedione to produce benzoic acid [3]: rapid and readily proceeded; release of BSA from the pre-formed AGE-mediated complexes [4]: concentration-dependent release of BSA; Breaking Anti-AGE ([2]; concentration not given): 73%; Breaking Anti-BSA ([2]; concentration not given): 98% |
| COC(=O)C[n+]1csc(C)c1C.[Br-] [3-(2-methoxy-2-oxoethyl)-4,5-dimethylthiazolium bromide] | 0.48 mM |  | 63% | 47% |  |
| COC(=O)C[n+]1csc(C)c1.[Br-] [3-(2-methoxy-2-oxoethyl)-5-methyl-thiazolium bromide] | 3.2 mM |  | 72% | 27% |  |
| O=C(O)C[n+]1csc2ccccc21.[Br-] [3-(carboxymethyl)-benzothiazolium bromide] |  | 16% | 63.7% | 17.9% |  |
| COC(=O)c1ccc(NC(=O)C[n+]2csc(CCO)c2C)cc1O [3-(2-(4′-carbmethoxy-3′-hydroxyanilino)-2-oxoethyl]-4-methyl-5-(2′-hydroxyethyl)-thiazolium bromide] | 1.76 mM |  |  |  | Breaking Anti-AGE ([2]; at 10 mM): 24%; Breaking Anti-BSA ([2]; at 10 mM): 18% |
| Cc1c[n+](CC(=O)c2cc(C(C)(C)C)c(O)c(C(C)(C)C)c2)cs1 [3-[2-(3′,5′-di-tert-butyl-4′-hydroxyphenyl)-2-oxoethyl)-5-methyl-thiazolium bromide] | 0.78 mM |  |  |  | Percent Inhibition (percent breaking of RBC-IgG) [1]: 65 ± 15 @ 19 days %; Breaking Anti-AGE ([2]; at 1 mM): 65%; Breaking Anti-BSA ([2]; at 1 mM): 69%; Breaking Anti-AGE ([2]; at 10 mM): 48%; Breaking Anti-BSA ([2]; at 10 mM): 49%; IC50 [2, 6]: 3 mM; inhibition at 1000 µM ([5]; read-out: Relative Cross-link Inhibition): 69% |
| Cc1c(CCO)sc[n+]1CC(=O)c1ccc2ccccc2c1.[Br-] [3-(2-(2′-naphthyl)-2-oxoethyl]-4-methyl-5-(2′-hydroxyethyl)-thiazolium bromide] |  |  |  |  | Percent Inhibition (percent breaking of RBC-IgG) [1]: 40 ± 24 @ 19 days %; Breaking Anti-AGE ([2]; at 10 mM): 52%; Breaking Anti-BSA ([2]; at 10 mM): 61%; Relative Cross-link Inhibition (at 10 mM) [5]: 61% |
| Cc1csc[n+]1CC(=O)c1ccccc1.[Br-] [3-(2-phenyl-2-oxoethyl)-4-methylthiazolium bromide] | 5.6 mM |  | 68% | 66% |  |
| COC(=O)C[n+]1cscc1C.[Br-] [3-(2-methoxy-2-oxoethyl)-4-methylthiazolium bromide] |  | 58% | 54% | 51% |  |
| COC(=O)C[n+]1ccsc1.[Br-] [3-(2-Methoxy-2-Oxoethyl)-Thiazolium Bromide] | 0.25 mM |  | 38% | 41% |  |
| COC(=O)C[n+]1csc2ccccc21.[Br-] [3-(2-methoxy-2-oxoethyl)-benzothiazolium bromide] | > 10 mM | 35% | 66% | 37% |  |
| Cc1c(CCO)sc[n+]1CC(N)=O.[Br-] [3-(2-amino-2-oxoethyl)-4-methyl-5-(2-hydroxyethyl)thiazolium bromide] | 1.42 mM |  |  |  | Breaking Anti-AGE ([2]; concentration not given): 65%; Breaking Anti-BSA ([2]; concentration not given): 57% |
| NC(=O)C[n+]1csc2ccccc21.[Br-] [3-(2-amino-2-oxoethyl)-benzothiazolium bromide] | 0.02 mM |  |  |  | Breaking Anti-AGE ([2]; concentration not given): 77%; Breaking Anti-BSA ([2]; concentration not given): 65%; IC50 [2, 6]: 0.4 mM |
| Cc1c(CCO)sc[n+]1CC(=O)c1ccccc1.[Br-] [3-(2-phenyl-2-oxoethyl)-4-methyl-5-(2-hydroxyethyl)-thiazolium bromide] | > 10 mM | 36% | 67% | 13% |  |
| Cc1c(CCO)sc[n+]1CC(=O)Nc1c(C(C)C)cccc1C(C)C.[Br-] [3-(2-(2′,6′-Diisopropylanilino)-2-oxoethyl]-4-methyl-5-(2′-hydroxyethyl)-thiazolium bromide] |  |  |  |  | Breaking Anti-AGE ([2]; at 10 mM): 31%; Breaking Anti-BSA ([2]; at 10 mM): 48%; Relative Cross-link Inhibition (at 10 mM) [5]: 19% |
